Measured values reported in ChEMBL document CHEMBL3608226, “Synthesis and biological evaluation of phaitanthrin congeners as anti-mycobacterial agents” (2015).
In brackets after ≈: the same amount, converted by molar mass.

Test system: Mycobacterium tuberculosis
Assay: Antimycobacterial activity against multi-drug resistant Mycobacterium tuberculosis
Type: functional

NNC(=O)c1ccncc1 [ISONIAZID]
MIC: 4 µg/mL (≈ 29.2 µM)

O=C1c2ccccc2-n2c1nc1ccccc1c2=O [TRYPTANTHRIN]
MIC: 0.5 µg/mL (≈ 2.01 µM)
